Among the data in ChEMBL document CHEMBL1147618, “Crucial amides for dimerization inhibitors of HIV-1 protease” (Bioorg Med Chem Lett, 2004) are IC50 and Relative loss of potency values, retold here.

Structures are written as SMILES.

The target of assay [1] is Human immunodeficiency virus type 1 protease (Human immunodeficiency virus 1, UniProt Q72874). As to the kind of experiment: Inhibitory concentration against Protease.
Assay [2] deals with Human immunodeficiency virus type 1 protease (Human immunodeficiency virus 1) (UniProt Q72874). Kind of assay: Relative loss of potency of compound in inhibiting Protease was determined.

`CC(C)C[C@H](NC(=O)[C@@H](NC(=O)CCCCCCCCCCCCCCC(=O)N(C)[C@@H](C(N)=O)C(=O)N[C@H](Cc1ccccc1)C(=O)O)[C@H](C)O)C(=O)N[C@@H](Cc1ccccc1)C(N)=O` showed an IC50 in assay [1] of 4.5 µM.

`CC(C)C[C@H](NC(=O)[C@@H](NC(=O)CCCCCCCCCCCCCCC(=O)N[C@@H](C(N)=O)C(=O)N[C@H](Cc1ccccc1)C(=O)O)[C@H](C)O)C(=O)N(C)[C@@H](Cc1ccccc1)C(N)=O` had an IC50 in assay [1] of 13 µM. The Relative loss of potency in assay [2] stood at 2.2.

Regarding `CC(C)C[C@@H](C(=O)N[C@@H](Cc1ccccc1)C(N)=O)N(C)C(=O)[C@@H](NC(=O)CCCCCCCCCCCCCCC(=O)N[C@@H](C(N)=O)C(=O)N[C@H](Cc1ccccc1)C(=O)O)[C@H](C)O`, the IC50 in assay [1] stood at 8 µM. The compound also yielded a Relative loss of potency in assay [2] of 1.4.

The compound `CC(C)C[C@H](NC(=O)[C@@H](NC(=O)CCCCCCCCCCCCCCC(=O)N[C@@H](C(N)=O)C(=O)N(C)[C@H](Cc1ccccc1)C(=O)O)[C@H](C)O)C(=O)NCCc1ccccc1` registered an IC50 in assay [1] of 5.8 µM.

With `CC(C)C[C@H](NC(=O)[C@@H](NC(=O)CCCCCCCCCCCCCCC(=O)N[C@@H](C(N)=O)C(=O)N[C@H](Cc1ccccc1)C(=O)O)[C@H](C)O)C(=O)N[C@@H](Cc1ccccc1)C(N)=O`, half-maximal inhibition in assay [1] (IC50) was put at 5.9 µM. The compound further registered a Relative loss of potency in assay [2] of 1.

In assay [1], `CC(C)C[C@H](NC(=O)[C@@H](NC(=O)CCCCCCCCCCCCCCC(=O)N[C@@H](C(N)=O)C(=O)N(C)[C@H](Cc1ccccc1)C(=O)O)[C@H](C)O)C(=O)N[C@@H](Cc1ccccc1)C(N)=O` showed an IC50 of 9.6 µM. For the same compound, the Relative loss of potency in assay [2] is 1.6.

For `CC(C)C[C@H](NC(=O)[C@H]([C@H](C)O)N(C)C(=O)CCCCCCCCCCCCCCC(=O)N[C@@H](C(N)=O)C(=O)N[C@H](Cc1ccccc1)C(=O)O)C(=O)N[C@@H](Cc1ccccc1)C(N)=O`, in assay [1], the 50% inhibitory concentration (IC50) was 8.3 µM. The same compound displayed a Relative loss of potency in assay [2] of 1.4.
